Values quoted from earlier work in patent publication US20250134097A1, “PERSISTENT SANITIZER” (priority 2020, published 2025).

How the values were obtained:
Adenovirus = details: in vitro; concentration-dependent; includes non-enveloped virus
microbes = details: benzalkonium chloride at 0.1-0.2%

In the case of Benzalkonium chloride, the antiviral activity (Adenovirus) is given as “some antiviral activity including non-enveloped activity” and the antimicrobial activity (microbes) is given as “Broad antimicrobial activity”.
